Key:
Trypanosoma brucei [1] = assay: Antiparasitic activity against Trypanosoma brucei after 48 hrs by cytometry; format: functional, organism-based
Trypanosoma cruzi [2] = assay: Antiparasitic activity against Trypanosoma cruzi; format: functional, organism-based
Leishmania major [3] = assay: Antiparasitic activity against Leishmania major amastigotes; format: functional, organism-based
Leishmania major [4] = assay: Antiparasitic activity against Leishmania major promastigotes; format: functional, organism-based
Plasmodium falciparum = assay: Antiparasitic activity against Plasmodium falciparum D6; format: functional, organism-based
HepG2 = assay: Cytotoxicity against human HepG2 cells by MTT assay; format: cell-based; details: hepg2
[5] = Selectivity ratio, ratio of EC50 for Plasmodium falciparum W2 to EC50 for Plasmodium falciparum D6; format: functional
[6] = Selectivity ratio, ratio of EC50 for Plasmodium falciparum C235 to EC50 for Plasmodium falciparum D6; format: functional
Trypanosoma cruzi [7] = assay: Antiparasitic activity against Trypanosoma cruzi at 10 uM; format: functional
Trypanosoma brucei [8] = assay: Antiparasitic activity against Trypanosoma brucei at 5 uM after 48 hrs by cytometry; format: functional
[9] = Leishmania major, read-out: EC50
[10] = Plasmodium falciparum, D6, read-out: EC50

| SMILES | EC50 (Trypanosoma brucei [1]) [nM] | EC50 (Trypanosoma cruzi [2]) [nM] | EC50 (Leishmania major [3]; [9]) [nM] | EC50 (Leishmania major [4]; [9]) [nM] | EC50 (Plasmodium falciparum; [10]) [nM] | Activity (HepG2) | Ratio EC50 [5] | Ratio EC50 [6] | inhibition at 10 µM (Trypanosoma cruzi [7]) [%] | inhibition at 5 µM (Trypanosoma brucei [8]) [%] | EC50 (Leishmania major [3]) | EC50 (Leishmania major [4]) | EC50 (Plasmodium falciparum) |
| --- | --- | --- | --- | --- | --- | --- | --- | --- | --- | --- | --- | --- | --- |
| Fc1cccc(COc2ccc(Nc3ncnc4sc(-c5cccc(N6CCOCC6)c5)cc34)cc2Cl)c1 | 400 | 2200 | 2600 | > 20000 | 520 | Non-toxic | – | – | – | – | – | – | – |
| CS(=O)(=O)c1cccc(-c2ccc3ncnc(Nc4ccc(OCc5cccc(F)c5)c(Cl)c4)c3c2)c1 | 3200 | 5000 | 4670 | 3490 | 520 | Non-toxic | < 3 | < 3 | – | – | – | – | – |
| Fc1cccc(COc2ccc(Nc3ncnc4sc(-c5cc6ccccc6s5)cc34)cc2Cl)c1 | 2900 | – | > 3000 | > 3000 | > 4000 | Non-toxic | – | – | 49 | – | – | – | – |
| Cc1cc(-c2cc3c(Nc4ccc(OCc5cccc(F)c5)c(Cl)c4)ncnc3s2)cnc1N1CCOCC1 | 420 | – | > 3000 | > 3000 | 280 | Non-toxic | < 3 | < 3 | 29 | – | – | – | – |
| O=C(c1cccc(-c2cc3c(Nc4ccc(OCc5cccc(F)c5)c(Cl)c4)ncnc3s2)c1)N1CCCCC1 | 330 | > 50000 | > 15000 | > 20000 | 2110 | Non-toxic | – | – | – | – | – | – | – |
| CS(=O)(=O)c1cccc(-c2cc3ncnc(Nc4ccc(OCc5cccc(F)c5)c(Cl)c4)c3s2)c1 | 1400 | 2700 | > 3000 | > 3000 | 650 | Non-toxic | < 3 | < 3 | – | – | – | – | – |
| Fc1cccc(COc2ccc(Nc3ncnc4cc(-c5cccc(N6CCOCC6)c5)sc34)cc2Cl)c1 | – | > 50000 | 5400 | > 20000 | 860 | Non-toxic | – | – | – | 42 | – | – | – |
| CC(C)(C)NS(=O)(=O)c1ccccc1-c1cc2c(Nc3ccc(OCc4cccc(F)c4)c(Cl)c3)ncnc2s1 | 500 | > 50000 | > 15000 | > 20000 | > 15000 | Non-toxic | – | – | – | – | – | – | – |
| CC(C)(C)OCc1ccc(-c2cc3c(Nc4ccc(OCc5cccc(F)c5)c(Cl)c4)ncnc3s2)cc1 | 1600 | – | 2030 | > 20000 | 7790 | Non-toxic | – | – | 17 | – | – | – | – |
| Fc1cccc(COc2ccc(Nc3ncnc4ccccc34)cc2Cl)c1 | 1300 | 2400 | 12400 | 1750 | 5330 | Non-toxic | – | – | – | – | – | – | – |
| Fc1cccc(COc2ccc(Nc3ncnc4cc(-c5ccc(N6CCOCC6)cc5)sc34)cc2Cl)c1 | 470 | – | > 15000 | > 20000 | 3100 | Non-toxic | – | – | 0 | – | – | – | – |
| Fc1cccc(COc2ccc(Nc3ncnc4ccsc34)cc2Cl)c1 | – | 27000 | > 15000 | 5680 | 16400 | Non-toxic | – | – | – | 1 | – | – | – |
| CC(C)(C)OCc1ccc(-c2cc3ncnc(Nc4ccc(OCc5cccc(F)c5)c(Cl)c4)c3s2)cc1 | 890 | 30000 | > 15000 | > 20000 | 1650 | Non-toxic | – | – | – | – | – | – | – |
| CS(=O)(=O)c1cccc(-c2cc3c(Nc4ccc(OCc5cccc(F)c5)c(Cl)c4)ncnc3s2)c1 | 1300 | 2400 | > 15000 | 11800 | 520 | Non-toxic | < 3 | < 3 | – | – | – | – | – |
| Fc1cccc(COc2ccc(Nc3ncnc4sc(-c5ccccc5Oc5ccccc5)cc34)cc2Cl)c1 | 1200 | – | > 15000 | > 20000 | 10800 | Non-toxic | – | – | 45 | – | – | – | – |
| Oc1ccc(-c2ccc3ncnc(Nc4ccc(OCc5cccc(F)c5)c(Cl)c4)c3c2)cc1 | 6500 | > 50000 | > 15000 | > 20000 | > 20000 | Non-toxic | – | – | – | – | – | – | – |
| Fc1cccc(COc2ccc(Nc3ncnc4ccc(-c5cc6ccccc6s5)cc34)cc2Cl)c1 | 6000 | > 50000 | > 15000 | > 20000 | 910 | Non-toxic | – | – | – | – | – | – | – |
| Oc1ccc(-c2cc3ncnc(Nc4ccc(OCc5cccc(F)c5)c(Cl)c4)c3s2)cc1 | 2200 | 750 | 1580 | > 20000 | 440 | Non-toxic | – | – | – | – | – | – | – |
| Fc1cccc(COc2ccc(Nc3ncnc4cc(-c5ccccc5)sc34)cc2Cl)c1 | 2800 | – | > 15000 | 8140 | 2970 | Non-toxic | – | – | 0 | – | – | – | – |
| Fc1cccc(COc2ccc(Nc3ncnc4cc(-c5cc6ccccc6s5)sc34)cc2Cl)c1 | – | > 50000 | > 15000 | > 20000 | > 15000 | Non-toxic | – | – | – | 8 | – | – | – |
| Cc1cc(-c2ccc3ncnc(Nc4ccc(OCc5cccc(F)c5)c(Cl)c4)c3c2)cnc1N1CCOCC1 | 1000 | – | 1140 | > 20000 | 260 | Non-toxic | < 3 | < 3 | 49 | – | – | – | – |
| Fc1cccc(COc2ccc(Nc3ncnc4cc(-c5ccccc5Oc5ccccc5)sc34)cc2Cl)c1 | – | > 50000 | 3500 | > 20000 | 6210 | Non-toxic | – | – | – | 10 | – | – | – |
| Fc1cccc(COc2ccc(Nc3ncnc4cc(-c5ccc(CN6CCOCC6)cc5)sc34)cc2Cl)c1 | 1100 | > 50000 | > 15000 | 220 | 27 | Non-toxic | – | < 3 | – | – | – | – | – |
| CC(C)(C)OCc1ccc(-c2ccc3ncnc(Nc4ccc(OCc5cccc(F)c5)c(Cl)c4)c3c2)cc1 | 220 | 2200 | 4090 | > 20000 | 600 | Non-toxic | – | – | – | – | – | – | – |
| CC(C)(C)NS(=O)(=O)c1ccccc1-c1cc2ncnc(Nc3ccc(OCc4cccc(F)c4)c(Cl)c3)c2s1 | 1200 | 670 | 2370 | > 20000 | 1070 | Non-toxic | – | – | – | – | – | – | – |
| Fc1cccc(COc2ccc(Nc3ncnc4ccc(-c5ccccc5Oc5ccccc5)cc34)cc2Cl)c1 | – | – | > 15000 | 6860 | 5790 | Non-toxic | – | – | – | – | – | – | – |
| CC(C)(C)NS(=O)(=O)c1ccccc1-c1ccc2ncnc(Nc3ccc(OCc4cccc(F)c4)c(Cl)c3)c2c1 | 4700 | 6400 | – | – | – | Non-toxic | – | – | – | – | ND(Insoluble) | ND(Insoluble) | ND(Insoluble) |
| O=C(c1cccc(-c2ccc3ncnc(Nc4ccc(OCc5cccc(F)c5)c(Cl)c4)c3c2)c1)N1CCCCC1 | – | > 50000 | > 15000 | > 3000 | 510 | Non-toxic | – | – | – | – | – | – | – |
